Data as given in patent US12404295B2, “(Hetero)aryl-methyl-thio-beta-D-galactopyranoside derivatives” (Idorsia Pharmaceuticals Ltd, priority 2019, dated 2025).

Legend:
human Gal-3 (hGal-3) = human Gal-3 (hGal-3) (Homo sapiens (Human), UniProt P17931); test: competitive binding assay: biotinylated hGal-3 binding to microplate-adsorbed asialofetuin (ASF); conditions: Table 5; read-out: IC50 (Gal-3 inhibition)
How it was run: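 Compounds serially diluted in DMSO compete with asialofetuin for biotinylated human Gal-3; plates are incubated 3 h at 4 °C, washed, then treated 1 h at 4 °C with streptavidin-peroxidase (80 ng/mL) and developed with ABTS. IC50 values are means of several measurements.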

human Gal-1 (hGal-1) = human Gal-1 (hGal-1) (Homo sapiens (Human), UniProt P09382); test: competitive binding assay: biotinylated hGal-1 binding to microplate-adsorbed asialofetuin (ASF); conditions: Table 15; read-out: IC50 (Galectin-1 inhibition)
How it was run: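 Biotinylated human Gal-1 (300-1000 ng/mL) competes with serially diluted compound for binding to ASF-coated plates, 3 h at 4° C. Bound protein detected with streptavidin-peroxidase and ABTS substrate (spectrophotometric). IC50 given as mean of several measurements.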

Sequence of human Gal-3 (hGal-3) (P17931 whole entry): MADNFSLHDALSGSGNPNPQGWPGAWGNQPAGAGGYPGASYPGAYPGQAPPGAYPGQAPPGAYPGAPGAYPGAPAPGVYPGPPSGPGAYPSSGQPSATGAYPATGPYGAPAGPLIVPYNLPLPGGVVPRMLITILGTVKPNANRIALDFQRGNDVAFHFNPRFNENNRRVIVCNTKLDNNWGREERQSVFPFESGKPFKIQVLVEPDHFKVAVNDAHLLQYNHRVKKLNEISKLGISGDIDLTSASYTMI
Sequence of human Gal-1 (hGal-1) (P09382 whole entry): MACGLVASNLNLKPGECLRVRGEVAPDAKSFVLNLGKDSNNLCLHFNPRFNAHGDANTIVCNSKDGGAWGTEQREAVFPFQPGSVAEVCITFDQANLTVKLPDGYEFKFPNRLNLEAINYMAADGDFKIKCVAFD

Substance	IC50 (human Gal-3 (hGal-3)) [µM]	IC50 (human Gal-1 (hGal-1)) [µM]
(2S,3R,4S,5R,6R)-2-(((4-Hydroxy-2,2-dimethyltetrahydro-2H-pyran-4-yl)(2-(trifluoromethyl)phenyl)methyl)thio)-6-(hydroxymethyl)-4-(4-(3,4,5-trifluorophenyl)-1H-1,2,3-triazol-1-yl)tetrahydro-2H-pyran-3,5-diol [Example 2.43.102.]	0.12	1.9
(2S,3R,4S,5R,6R)-2-(((R)-(2,3-Dichlorophenyl)(4,4-difluoro-1-hydroxycyclohexyl)methyl)thio)-6-(hydroxymethyl)-4-(4-(3,4,5-trifluorophenyl)-1H-1,2,3-triazol-1-yl)tetrahydro-2H-pyran-3,5-diol [Example 2.44.113R.]	0.8	1.73
(2S,3R,4S,5R,6R)-2-(((R)-(2-Cyclopropylphenyl)(4,4-difluoro-1-hydroxycyclohexyl)methyl)thio)-6-(hydroxymethyl)-4-(4-(3,4,5-trifluorophenyl)-1H-1,2,3-triazol-1-yl)tetrahydro-2H-pyran-3,5-diol [Example 2.44.106R.]	0.06	0.02
(2S,3R,4S,5R,6R)-2-(((R)-(3,3-Difluoro-1-hydroxycyclobutyl)(3-(trifluoromethyl)pyridin-2-yl)methyl)thio)-6-(hydroxymethyl)-4-(4-(3,4,5-trifluorophenyl)-1H-1,2,3-triazol-1-yl)tetrahydro-2H-pyran-3,5-diol [Example 2.35.125R.]	0.1	0.81
(2S,3R,4S,5R,6R)-2-(((R)-(4-Hydroxy-2,2,6,6-tetramethyltetrahydro-2H-pyran-4-yl)(2-(trifluoromethyl)phenyl)methyl)thio)-6-(hydroxymethyl)-4-(4-(3,4,5-trifluorophenyl)-1H-1,2,3-triazol-1-yl)tetrahydro-2H-pyran-3,5-diol [Example 2.42.102R.]	0.09	6.4
(2S,3R,4S,5R,6R)-2-(((R)-((R)-4-Hydroxy-2,2-dimethyltetrahydro-2H-pyran-4-yl)(2-(trifluoromethyl)phenyl)methyl)thio)-6-(hydroxymethyl)-4-(4-(3,4,5-trifluorophenyl)-1H-1,2,3-triazol-1-yl)tetrahydro-2H-pyran-3,5-diol [Example 2.43.102RR.]	0.29	8.8
(2S,3R,4S,5R,6R)-2-(((R)-((R)-4-Hydroxy-2,2-dimethyltetrahydro-2H-pyran-4-yl)(o-tolyl)methyl)thio)-6-(hydroxymethyl)-4-(4-(3,4,5-trifluorophenyl)-1H-1,2,3-triazol-1-yl)tetrahydro-2H-pyran-3,5-diol [Example 2.43.112RR.]	1.5	6.8
(2S,3R,4S,5R,6R)-2-(((R)-((S)-4-Hydroxy-2,2-dimethyltetrahydro-2H-pyran-4-yl)(2-(trifluoromethyl)phenyl)methyl)thio)-6-(hydroxymethyl)-4-(4-(3,4,5-trifluorophenyl)-1H-1,2,3-triazol-1-yl)tetrahydro-2H-pyran-3,5-diol [Example 2.43.102RS.]	0.04	0.8
(2S,3R,4S,5R,6R)-2-(((R)-((S)-4-Hydroxy-2,2-dimethyltetrahydro-2H-pyran-4-yl)(o-tolyl)methyl)thio)-6-(hydroxymethyl)-4-(4-(3,4,5-trifluorophenyl)-1H-1,2,3-triazol-1-yl)tetrahydro-2H-pyran-3,5-diol [Example 2.43.112RS.]	0.13	0.4
(2S,3R,4S,5R,6R)-2-(((S)-(1-Hydroxycyclohexyl)(4-methylisoxazol-3-yl)methyl)thio)-6-(hydroxymethyl)-4-(4-(3,4,5-trifluorophenyl)-1H-1,2,3-triazol-1-yl)tetrahydro-2H-pyran-3,5-diol [Example 2.39.120S.]	14.8	70
(2S,3R,4S,5R,6R)-2-(((S)-(2,3-Dichlorophenyl)(4,4-difluoro-1-hydroxycyclohexyl)methyl)thio)-6-(hydroxymethyl)-4-(4-(3,4,5-trifluorophenyl)-1H-1,2,3-triazol-1-yl)tetrahydro-2H-pyran-3,5-diol [Example 2.44.113S.]	57.5	56.8
(2S,3R,4S,5R,6R)-2-(((S)-(2-Cyclopropylphenyl)(4,4-difluoro-1-hydroxycyclohexyl)methyl)thio)-6-(hydroxymethyl)-4-(4-(3,4,5-trifluorophenyl)-1H-1,2,3-triazol-1-yl)tetrahydro-2H-pyran-3,5-diol [Example 2.44.106S.]	0.93	1.9
(2S,3R,4S,5R,6R)-2-(((S)-(3,3-Difluoro-1-hydroxycyclobutyl)(3-(trifluoromethyl)pyridin-2-yl)methyl)thio)-6-(hydroxymethyl)-4-(4-(3,4,5-trifluorophenyl)-1H-1,2,3-triazol-1-yl)tetrahydro-2H-pyran-3,5-diol [Example 2.35.125S.]	3	21.8
(2S,3R,4S,5R,6R)-2-(((S)-(4,4-Difluoro-1-hydroxycyclohexyl)(2-(trifluoromethyl)phenyl)methyl)thio)-6-(hydroxymethyl)-4-(4-(3,4,5-trifluorophenyl)-1H-1,2,3-triazol-1-yl)tetrahydro-2H-pyran-3,5-diol [Example 2.44.112S.]	19.5	17.6
(2S,3R,4S,5R,6R)-2-(((S)-(4-Hydroxy-2,2,6,6-tetramethyltetrahydro-2H-pyran-4-yl)(2-(trifluoromethyl)phenyl)methyl)thio)-6-(hydroxymethyl)-4-(4-(3,4,5-trifluorophenyl)-1H-1,2,3-triazol-1-yl)tetrahydro-2H-pyran-3,5-diol [Example 2.42.102S.]	7.82	> 100
(2S,3R,4S,5R,6R)-2-(((S)-((R)-4-Hydroxy-2,2-dimethyltetrahydro-2H-pyran-4-yl)(2-(trifluoromethyl)phenyl)methyl)thio)-6-(hydroxymethyl)-4-(4-(3,4,5-trifluorophenyl)-1H-1,2,3-triazol-1-yl)tetrahydro-2H-pyran-3,5-diol [Example 2.43.102SR.]	3.9	55
(2S,3R,4S,5R,6R)-2-(((S)-((R)-4-Hydroxy-2,2-dimethyltetrahydro-2H-pyran-4-yl)(o-tolyl)methyl)thio)-6-(hydroxymethyl)-4-(4-(3,4,5-trifluorophenyl)-1H-1,2,3-triazol-1-yl)tetrahydro-2H-pyran-3,5-diol [Example 2.43.112SR.]	4.9	10.9
(2S,3R,4S,5R,6R)-2-(((S)-((S)-4-Hydroxy-2,2-dimethyltetrahydro-2H-pyran-4-yl)(2-(trifluoromethyl)phenyl)methyl)thio)-6-(hydroxymethyl)-4-(4-(3,4,5-trifluorophenyl)-1H-1,2,3-triazol-1-yl)tetrahydro-2H-pyran-3,5-diol [Example 2.43.102SS.]	3.92	69.5
(2S,3R,4S,5R,6R)-2-(((S)-((S)-4-Hydroxy-2,2-dimethyltetrahydro-2H-pyran-4-yl)(o-tolyl)methyl)thio)-6-(hydroxymethyl)-4-(4-(3,4,5-trifluorophenyl)-1H-1,2,3-triazol-1-yl)tetrahydro-2H-pyran-3,5-diol [Example 2.43.112SS.]	7.3	19.4
